From patent US20060039869A1, “Intranasal delivery of antipsychotic drugs” (priority 2004, published 2006)
Where “and” joins values, the source holds several entries; their conditions need not be identical. Identical values can stand only once. Like-named read-outs stand apart in the source and are kept apart here.

Experiments:
clinical = conditions: human, plasma, 2.5 mg; for Cmax: n=4, mean (CV %)
[1] = for Tmax: healthy subjects n=4, median (range)
[2] = cited from earlier work

Compound: O=C(CCCN1CCC(O)(c2ccc(Cl)cc2)CC1)c1ccc(F)cc1 [haloperidol lactate, haloperidol]
- AUC(0-inf) (clinical; both, im): 81.8 ng·h/mL
- AUC(0-t) (clinical; both, im): 59.7 ng·h/mL
- MRT (clinical; both, im): 16.1 h
- Tmax (clinical; both, im): 0.625 h
- Vd/F (clinical; both, im): 1360 L
- half-life (clinical; both, im): 28.8 h
- Cmax (clinical; both, im, IM 2.5 mg): 8.42 ng/mL
- bioavailability (clinical; both, intramuscular): 134%
- AUC(0-inf) (clinical; both, iv): 60.4 ng·h/mL
- AUC(0-t) (clinical; both, iv): 50.8 ng·h/mL
- MRT (clinical; both, iv): 12.7 h
- Tmax (clinical; both, iv): 0.25 h
- Vd (clinical; both, iv): 934 L
- half-life (clinical; both, iv): 17.1 h
- Cmax (clinical; both, iv, IV 2.5 mg): 23.3 ng/mL
- AUC(0-inf) (clinical; both, other: intranasal): 37.9 ng·h/mL
- AUC(0-t) (clinical; both, other: intranasal): 31.7 ng·h/mL
- MRT (clinical; both, other: intranasal): 12.9 h
- Tmax (clinical; both, other: intranasal): 0.25 h
- Vd/F (clinical; both, other: intranasal): 1580 L
- bioavailability (clinical; both, other: intranasal): 63.8%
- half-life (clinical; both, other: intranasal): 16.9 h
- Cmax (clinical; both, other: intranasal, IN 2.5 mg): 9.8 ng/mL
- Tmax (clinical; im): 16 h
- Tmax ([1]; IM 2.5 mg): 0.625 (0.25-16) h
- Cmax after intranasal dose compared with intramuscular dose ([1]; IN 2.5 mg vs IM 2.5 mg): slightly higher
- Tmax ([1]; IN 2.5 mg): 0.25 (0.12-0.5) h
- Cmax, individual subjects ([1]; IN 2.5 mg, single subjects): 16.2 ng/mL and 7.5 to 7.9 ng/mL
- time at which haloperidol concentrations reached a peak, individual subjects ([1]; IN 2.5 mg, single subjects): 7.5 min and 15 min and 30 min
- half-lives, intravenous and intranasal ([1]; IV vs IN 2.5 mg): similar
- time of peak plasma concentration ([2]; intramuscular administration): approximately 20 minutes
- absolute bioavailability ([2]; oral administration): approximately 65%
